Measured values as given in patent publication EP0929299B1, “SUBSTITUTED 1,2,3,4-TETRAHYDRO-2-DIBENZOFURANAMINES AND 2-AMINOCYCLOHEPTA(b)BENZOFURANS” (ELI LILLY AND COMPANY, priority 1996, dated 1998).

Test system: neuronal protein extravasation
Assay: Neuronal protein extravasation in dura after electrical stimulation of the trigeminal ganglion (Evans Blue)
Assay type: in vivo, Harlan Sprague-Dawley rats or guinea pigs
Protocol: Harlan Sprague-Dawley rats (225-325 g) or guinea pigs from Charles River Laboratories (225-325 g) were anesthetized with sodium pentobarbital intraperitoneally (65 mg/kg or 45 mg/kg respectively) and placed in a stereotaxic frame (David Kopf Instruments) with the incisor bar set at - 3.5 mm for rats or -4.0 mm for guinea pigs. Following a midline sagital scalp incision, two pairs of bilateral holes were drilled through the skull (6 mm posteriorly, 2.0 and 4.0 mm laterally in rats; 4 mm posteriorly and 3.2 and 5.2 mm laterally in guinea pigs, all coordinates referenced to bregma). Pairs of stainless steel stimulating electrodes (Rhodes Medical Systems, Inc.) were lowered through the holes in both hemispheres to a depth of 9 mm (rats) or 10.5 mm (guinea pigs) from dura.
The femoral vein was exposed and a dose of the test compound was injected intravenously (1 mL/kg). […]
A fluorescence microscope (Zeiss) equipped with a grating monochromator and a spectrophotometer was used to quantify the amount of Evans Blue dye in each sample. An excitation wavelength of approximately 535 nm was utilized and the emission intensity at 600 nm was determined. […] This facilitated the computer-controlled movement of the stage with fluorescence measurements at 25 points (500 µm steps) on each dural sample. The mean and standard deviation of the measurements was determined by the computer. […]

Structure (SMILES)	Inhibition of Protein Extravasation i.v. ID50 (i.v., 10 minutes before stimulation of the trigeminal ganglion, species (rat or guinea pig) not given, ID50 approximated from dose-response curve)	Inhibition of Protein Extravasation i.v. ID50 (mMol/kg) (iv)
O=C(O)C(=O)O.Oc1ccc2[nH]cc(C3CCNCC3)c2c1 [Compound III, 5-hydroxy-3-(4-piperidinyl)-1H-indole oxalate]	8.9e-09 mmol/kg	
CCN(CC)C1CCc2cccc(Cl)c2C1.Cl (centres unmarked) [Compound IV, 8-chloro-2-diethylamino-1,2,3,4-tetrahydronaphthalene hydrochloride]		1.2x10-^7 mMol/kg
